Patent EP0908457B1, “3-(1,2-benzisothiazol- and isoxazol-5-Y1)-2,4(1H,3H)-pyrimidinedione or thione and 3-(1,2-benzisothiazol- and isoxazol-5-y1)-4(3H)-pyrimidinone or thione herbicidal agents” (BASF AKTIENGESELLSCHAFT, priority 1997, dated 1999)

Assays:
[1] = system: Monochoria vaginalis, Presl.; test: Preemergence weed control under flooded paddy conditions, MOOVA (Monochoria); assay type: in vivo; conditions: preemergence, flooded paddy, rated 3-4 weeks after treatment
[2] = system: Oryza sativa, (L.) Tebonnet; test: Rice tolerance to post-transplant applications under flooded paddy conditions (Example 187), ORYSAT (Rice, Tebonnet); conditions: rated 3-4 weeks after treatment
[3] = system: Echinochloa oryzoides (Ard.) Fritsch.; test: Preemergence weed control under flooded paddy conditions, ECHORC (Watergrass (Calif.)); assay type: in vivo; conditions: preemergence, flooded paddy, rated 3-4 weeks after treatment
Sagittaria pygmaea, L. = test: Preemergence weed control under flooded paddy conditions, SAGPY (Arrowhead (Pygmaea)); assay type: in vivo; conditions: preemergence, flooded paddy, rated 3-4 weeks after treatment
[4] = system: Cyperus serotinus, Rottb.; test: Preemergence weed control under flooded paddy conditions, CYPSE (Flatsedge); assay type: in vivo; conditions: preemergence, rated 3-4 weeks after treatment
Cyperus iria = test: Preemergence weed control under flooded paddy conditions, CYPIR (Rice Flatsedge); assay type: in vivo; conditions: preemergence, flooded paddy, rated 3-4 weeks after treatment
Also: meaning of each grade not given here.

Row | SMILES | herbicidal effect rating, MOOVA ([1]; Rate 0.0320 kg/ha) | herbicidal effect rating, MOOVA ([1]; Rate 0.0620 kg/ha) | herbicidal effect rating, MOOVA ([1]; Rate 0.1250 kg/ha) | herbicidal effect rating, MOOVA ([1]; Rate 0.2500 kg/ha) | herbicidal effect rating, MOOVA ([1]; Rate 0.5000 kg/ha) | herbicidal effect rating ORYSAT ([2]; Rate 0.0320 kg/ha) | herbicidal effect rating ORYSAT ([2]; Rate 0.0620 kg/ha) | herbicidal effect rating ORYSAT ([2]; Rate 0.1250 kg/ha) | herbicidal effect rating ORYSAT ([2]; Rate 0.2500 kg/ha) | herbicidal effect rating ORYSAT ([2]; Rate 0.5000 kg/ha) | herbicidal effect rating, ECHORC ([3]; Rate 0.0320 kg/ha) | herbicidal effect rating, ECHORC ([3]; Rate 0.0620 kg/ha) | herbicidal effect rating, ECHORC ([3]; Rate 0.1250 kg/ha) | herbicidal effect rating, ECHORC ([3]; Rate 0.2500 kg/ha) | herbicidal effect rating, ECHORC ([3]; Rate 0.5000 kg/ha) | herbicidal effect rating, SAGPY (Sagittaria pygmaea, L.; Rate 0.0320 kg/ha) | herbicidal effect rating, SAGPY (Sagittaria pygmaea, L.; Rate 0.0620 kg/ha) | herbicidal effect rating, SAGPY (Sagittaria pygmaea, L.; Rate 0.1250 kg/ha) | herbicidal effect rating, SAGPY (Sagittaria pygmaea, L.; Rate 0.2500 kg/ha) | herbicidal effect rating, SAGPY (Sagittaria pygmaea, L.; Rate 0.5000 kg/ha) | also measured
1 | C=CS(=O)(=O)NC(=O)COc1ccc(C)cc1-c1nsc2ccc(-n3c(=O)cc(C(F)(F)F)n(C)c3=O)cc12 [Example 553, Acetamide, 2-{{2-{5-[3,6-dihydro-3-methyl-2,6-dioxo-4-(trifluoromethyl)-1(2H)-pyrimidinyl]-1,2-benzisothiazol-3-yl}-p-tolyl}oxy}-N-(vinylsulfonyl)-] | 7.0 | 9.0 | 9.0 | 9.0 | 9.0 | 3.0 | 4.0 | 4.0 | 6.0 | 4.0 | 1.3 | 2.1 | 6.4 | 9.0 | 7.0 | 0.0 | 0.0 | 0.0 | 0.0 | 0.0 | herbicidal effect rating, CYPSE ([4]; Rate 0.0320 kg/ha): 0.0; herbicidal effect rating, CYPSE ([4]; Rate 0.0620 kg/ha): 0.0; herbicidal effect rating, CYPSE ([4]; Rate 0.2500 kg/ha): 2.0; herbicidal effect rating, CYPSE ([4]; Rate 0.5000 kg/ha): 9.0; herbicidal effect rating, CYPIR (Cyperus iria; Rate 0.0320 kg/ha): 2.0; herbicidal effect rating, CYPIR (Cyperus iria; Rate 0.0620 kg/ha): 6.0; herbicidal effect rating, CYPIR (Cyperus iria; Rate 0.1250 kg/ha): 7.0; herbicidal effect rating, CYPIR (Cyperus iria; Rate 0.2500 kg/ha): 9.0; herbicidal effect rating, CYPIR (Cyperus iria; Rate 0.5000 kg/ha): 4.0
2 | CCS(=O)(=O)NC(=O)COc1ccc(C)cc1-c1nsc2ccc(-n3c(=O)cc(C(F)(F)F)n(C)c3=O)cc12 [Example 554, Acetamide, 2-{{2-{5-[3,6-dihydro-3-methyl-2,6-dioxo-4-(trifluoromethyl)-1(2H)-pyrimidinyl)-1,2-benzisothiazol-3-yl}-p-tolyl}oxy}-N-(ethylsulfonyl)-] | 9.0 | 9.0 | 9.0 | 9.0 | 9.0 | 4.0 | 4.0 | 6.0 | 7.0 | 6.0 | 3.0 | 4.1 | 5.7 | 9.0 | 7.0 | 0.0 | 0.0 | 0.0 | 9.0 | 0.0 | herbicidal effect rating, CYPSE ([4]; Rate 0.0320 kg/ha): 0.0; herbicidal effect rating, CYPSE ([4]; Rate 0.0620 kg/ha): 0.0; herbicidal effect rating, CYPSE ([4]; Rate 0.1250 kg/ha): 4.0; herbicidal effect rating, CYPSE ([4]; Rate 0.2500 kg/ha): 9.0; herbicidal effect rating, CYPSE ([4]; Rate 0.5000 kg/ha): 9.0; herbicidal effect rating, CYPIR (Cyperus iria; Rate 0.0320 kg/ha): 2.0; herbicidal effect rating, CYPIR (Cyperus iria; Rate 0.0620 kg/ha): 7.0; herbicidal effect rating, CYPIR (Cyperus iria; Rate 0.1250 kg/ha): 9.0; herbicidal effect rating, CYPIR (Cyperus iria; Rate 0.2500 kg/ha): 9.0; herbicidal effect rating, CYPIR (Cyperus iria; Rate 0.5000 kg/ha): 5.0
3 | CC(C)S(=O)(=O)NC(=O)COc1ccccc1-c1nsc2ccc(-n3c(=O)cc(C(F)(F)F)n(C)c3=O)cc12 [Example 555, Acetamide, 2-{o-{5-[3,6-dihydro-3-methyl-2,6-dioxo-4-(trifluoromethyl)-1(2H)-pyrimidinyl)-1,2-benzisothiazol-3-yl}phenoxy}-N-(isopropylsulfonyl)-] | 9.0 | 9.0 | 9.0 | 9.0 | 9.0 | 6.0 | 6.0 | 8.0 | 9.0 | 3.0 | 1.6 | 2.3 | 4.6 | 9.0 | 9.0 | 0.0 | 0.0 | 2.0 | 7.0 | 0.0 | herbicidal effect rating, CYPSE ([4]; Rate 0.0320 kg/ha): 4.0; herbicidal effect rating, CYPSE ([4]; Rate 0.0620 kg/ha): 6.0; herbicidal effect rating, CYPSE ([4]; Rate 0.1250 kg/ha): 8.0; herbicidal effect rating, CYPSE ([4]; Rate 0.2500 kg/ha): 8.0; herbicidal effect rating, CYPSE ([4]; Rate 0.5000 kg/ha): 9.0; herbicidal effect rating, CYPIR (Cyperus iria; Rate 0.0320 kg/ha): 4.0; herbicidal effect rating, CYPIR (Cyperus iria; Rate 0.0620 kg/ha): 6.0; herbicidal effect rating, CYPIR (Cyperus iria; Rate 0.1250 kg/ha): 9.0; herbicidal effect rating, CYPIR (Cyperus iria; Rate 0.2500 kg/ha): 9.0; herbicidal effect rating, CYPIR (Cyperus iria; Rate 0.5000 kg/ha): 3.0
4 | CCCS(=O)(=O)NC(=O)COc1ccccc1-c1nsc2ccc(-n3c(=O)cc(C(F)(F)F)n(C)c3=O)cc12 [Example 556, Acetamide, 2-{o-{5-[3,6-dihydro-3-methyl-2,6-dioxo-4-(trifluoromethyl)-1(2H)-pyrimidinyl]-1,2-benzisothiazol-3-yl}phenoxy}-N-(propylsulfonyl)-] | 9.0 | 9.0 | 9.0 | 9.0 | 9.0 | 4.0 | 7.0 | 8.0 | 9.0 | 5.0 | 2.9 | 3.6 | 4.4 | 9.0 | 9.0 | 0.0 | 0.0 | 6.0 | 4.0 | 3.0 | herbicidal effect rating, CYPSE ([4]; Rate 0.0320 kg/ha): 2.0; herbicidal effect rating, CYPSE ([4]; Rate 0.0620 kg/ha): 2.0; herbicidal effect rating, CYPSE ([4]; Rate 0.1250 kg/ha): 9.0; herbicidal effect rating, CYPSE ([4]; Rate 0.2500 kg/ha): 9.0; herbicidal effect rating, CYPSE ([4]; Rate 0.5000 kg/ha): 0.0; herbicidal effect rating, CYPIR (Cyperus iria; Rate 0.0320 kg/ha): 0.0; herbicidal effect rating, CYPIR (Cyperus iria; Rate 0.0620 kg/ha): 2.0; herbicidal effect rating, CYPIR (Cyperus iria; Rate 0.1250 kg/ha): 7.0; herbicidal effect rating, CYPIR (Cyperus iria; Rate 0.2500 kg/ha): 9.0; herbicidal effect rating, CYPIR (Cyperus iria; Rate 0.5000 kg/ha): 3.0
5 | C=CS(=O)(=O)NC(=O)COc1ccccc1-c1nsc2ccc(-n3c(=O)cc(C(F)(F)F)n(C)c3=O)cc12 [Example 557, Acetamide, 2-{o-{5-[3,6-dihydro-3-methyl-2,6-dioxo-4-(trifluoromethyl)-1(2H)-pyrimidinyl]-1,2-benzisothiazol-3-yl}phenoxy}-N-(vinylsulfonyl)-] | 9.0 | 9.0 | 9.0 | 9.0 | 9.0 | 6.0 | 8.0 | 8.0 | 9.0 | 9.0 | 4.3 | 5.1 | 6.3 | 9.0 | 9.0 | 0.0 | 0.0 | 2.0 | 4.0 | 4.0 | herbicidal effect rating, CYPSE ([4]; Rate 0.0320 kg/ha): 0.0; herbicidal effect rating, CYPSE ([4]; Rate 0.1250 kg/ha): 6.0; herbicidal effect rating, CYPSE ([4]; Rate 0.2500 kg/ha): 9.0; herbicidal effect rating, CYPSE ([4]; Rate 0.5000 kg/ha): 5.0; herbicidal effect rating, CYPIR (Cyperus iria; Rate 0.0320 kg/ha): 4.0; herbicidal effect rating, CYPIR (Cyperus iria; Rate 0.0620 kg/ha): 8.0; herbicidal effect rating, CYPIR (Cyperus iria; Rate 0.1250 kg/ha): 9.0; herbicidal effect rating, CYPIR (Cyperus iria; Rate 0.2500 kg/ha): 9.0; herbicidal effect rating, CYPIR (Cyperus iria; Rate 0.5000 kg/ha): 9.0
6 | CCS(=O)(=O)NC(=O)COc1ccccc1-c1nsc2ccc(-n3c(=O)cc(C(F)(F)F)n(C)c3=O)cc12 [Example 558, Acetamide, 2-{o-{5-[3,6-dihydro-3-methyl-2,6-dioxo-4-(trifluoromethyl)-1(2H)-pyrimidinyl]-1,2-benzisothiazol-3-yl}phenoxy}-N-(ethylsulfonyl)-] | 9.0 | 9.0 | 9.0 | 9.0 | 9.0 | 4.0 | 7.0 | 9.0 | 9.0 | 9.0 | 4.3 | 4.7 | 7.0 | 9.0 | 9.0 | 2.0 | 2.0 | 4.0 | 8.0 | 4.0 | herbicidal effect rating, CYPSE ([4]; Rate 0.1250 kg/ha): 9.0; herbicidal effect rating, CYPSE ([4]; Rate 0.2500 kg/ha): 9.0; herbicidal effect rating, CYPSE ([4]; Rate 0.5000 kg/ha): 9.0; herbicidal effect rating, CYPIR (Cyperus iria; Rate 0.0320 kg/ha): 2.0; herbicidal effect rating, CYPIR (Cyperus iria; Rate 0.0620 kg/ha): 6.0; herbicidal effect rating, CYPIR (Cyperus iria; Rate 0.1250 kg/ha): 8.0; herbicidal effect rating, CYPIR (Cyperus iria; Rate 0.2500 kg/ha): 9.0; herbicidal effect rating, CYPIR (Cyperus iria; Rate 0.5000 kg/ha): 9.0
